Experiment: Water solubility (typical physical properties, Table 1)
Format: physicochemical
Settings: components of the 2% w/w solution of resin in perfluorohexane
Description: A solution of a fluoropolymer resin, prepared in accordance with details given in PCT Patent Application No. WO 94/05498 (and documents referred to therein), was prepared by dissolving sufficient of it, at room temperature in perfluorohexane ("FLUTEC" PP-1 from BNFL Fluorochemicals Ltd) to make a 2% w/w solution.

Water Solubility: Insoluble
SMILES: FC(F)(F)C(F)(F)C(F)(F)C(F)(F)C(F)(F)C(F)(F)F [SOLVENT, perfluorohexane]
